# Measured values reported in patent US20170121385A1 (Oxeia Biopharmaceuticals, Inc., priority 2015, published 2017).
# Read-outs that look alike come from different tables or passages of the source.
# Assays:
# GHS-R = GHS-R (Homo sapiens, UniProt Q92847); assay: GHS-R antagonist activity in a cell based assay; settings: GHS-R modulating compounds
# [1] = human, in vivo; cited from earlier work
# severe TBI [2] = assay: severe TBI model (brain tissue loss, apoptosis, balance beam foot faults, edema); format: in vivo, mice; settings: as low as 20 μg/kg in two doses early after injury; pre-clinical modeling
# Description: In a series of publications, the Bansal laboratory has shown that exogenously dosed ghrelin confers significant neuroprotective benefits following severe TBI. […] Severe TBI causes significant tissue necrosis and neuron loss secondary to edema and apoptosis. […] Severe TBI induces apoptosis within the neocortex (TUNEL staining green). […] Severe TBI caused significant neurocognitive defects (as measured by foot faults on a balance beam assay) on post-TBI Day 1, 3 and 7 compared to sham.
# mild TBI [3] = assay: mild TBI model (controlled cortical impactor), whole brain oxidative burst assay by flow cytometry; format: in vivo, mouse
# Description: In a mild TBI model, ghrelin therapy provided significant neuroprotective effects. Using a controlled cortical impactor, with standardized settings (5.0 m/s, a 3 mm diameter impounder tip, a depth of 1.0 mm, and a dwell time of 0.2 milliseconds), a mouse mild brain injury was elicited in three groups (n=5 in each group), sham, mTBI only, mTBI with 2 doses of ghrelin (50 μg/kg) 10 minutes and 1 hour after injury. Animals were sacrificed after 24 hours and whole brain reactive oxygen species was assessed by an oxidative burst assay as measured by flow cytometry. […] Ghrelin therapy decreased mTBI oxidative burst to sham levels 3,300 MFI (SEM 1,000); p<0.05 mTBI compared to drug treated.
# mild TBI [4] = assay: mild TBI model, myeloperoxidase (MPO) and Gr-1 (neutrophil) staining in the hippocampus; format: in vivo, mouse; settings: same three animal groups
# Description: In a mild TBI model, ghrelin therapy provided significant neuroprotective effects. Using a controlled cortical impactor, with standardized settings (5.0 m/s, a 3 mm diameter impounder tip, a depth of 1.0 mm, and a dwell time of 0.2 milliseconds), a mouse mild brain injury was elicited in three groups (n=5 in each group), sham, mTBI only, mTBI with 2 doses of ghrelin (50 μg/kg) 10 minutes and 1 hour after injury. Ghrelin reduces oxidative burst (a measure of ROS) following mild TBI in animal models. Oxidative burst was determined 24 hours following mild TBI in three groups via flow cytometry. […] In separate experiments, using the same three animal groups, myeloperoxidase (MPO) and Gr-1 (neutrophil) staining were conducted in the hippocampus. […] Myeloperoxidase (MPO) is a potent enzyme in neutrophils and […] that forms hypochlorous acid (ROS). […] Ghrelin therapy reduced MPO staining. These observations built upon previous work showing ghrelin's protective effect following severe TBI models, stroke and other neurodegenerative diseases.
# severe TBI [5] = settings: cited from earlier work; for brain tissue loss / loss of brain volume: 7 days following injury, 10 minutes and 1 hour after TBI; for brain tissue loss / loss of brain volume / apoptosis in the neocortex (TUNEL staining): ghrelin 20 μg/kg; for apoptosis in the neocortex (TUNEL staining): two doses
# rodent brain injury = settings: cited from earlier work
# Chain of GHS-R (Q92847 whole entry, species assumed): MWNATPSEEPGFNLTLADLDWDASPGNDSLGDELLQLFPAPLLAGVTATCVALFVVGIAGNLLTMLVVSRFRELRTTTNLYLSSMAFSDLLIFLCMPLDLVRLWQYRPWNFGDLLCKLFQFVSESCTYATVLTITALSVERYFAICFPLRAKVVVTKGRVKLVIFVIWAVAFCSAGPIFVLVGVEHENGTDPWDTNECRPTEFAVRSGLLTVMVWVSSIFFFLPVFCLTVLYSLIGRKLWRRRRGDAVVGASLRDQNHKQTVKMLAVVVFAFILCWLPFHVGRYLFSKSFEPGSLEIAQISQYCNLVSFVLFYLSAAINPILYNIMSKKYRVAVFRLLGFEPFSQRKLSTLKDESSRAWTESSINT
Molecule,Ki (GHS-R) [nM],serious adverse events [1],side effects observed [1],post-severe TBI edema (severe TBI [2]),"efficacy in mTBI (mild TBI [3]; 50 μg/kg, two doses administered within 24 hours of injury, initial pre-clinical experiments)","oxidative burst (a measure of ROS) following mild TBI (mild TBI [3]; 24 hours following mild TBI, flow cytometry)","oxidative burst (whole brain reactive oxygen species) (mild TBI [3]; mouse mTBI, 2 doses of ghrelin (50 μg/kg) 10 minutes and 1 hour after injury, sacrificed after 24 hours, flow cytometry, n=5)",MPO staining in the hippocampus (mild TBI [4]),neutrophil infiltration (Gr-1 staining) in the hippocampus (mild TBI [4]),brain tissue loss / loss of brain volume (severe TBI [5]; listed as ghrelin),brain tissue loss / loss of brain volume (severe TBI [5]),invasion of inflammatory cells (severe TBI [5]),apoptosis in the neocortex (TUNEL staining) (severe TBI [5]; listed as ghrelin),apoptosis in the neocortex (TUNEL staining) (severe TBI [5]),"neurocognitive function (foot faults on a balance beam assay) (severe TBI [5]; post-TBI Day 1, 3 and 7, ghrelin dosed only at Day 0, listed as ghrelin)","neurocognitive function (foot faults on a balance beam assay) (severe TBI [5]; post-TBI Day 1, 3 and 7, ghrelin dosed only at Day 0)",ROS accumulation (rodent brain injury),neuro-cognitive function (rodent brain injury),neuron tissue loss (rodent brain injury),neuronal apoptosis (rodent brain injury)
CCN(CC)CCCS(=O)(=O)N[C@H](CCc1ccccc1)c1nc(-c2cncc(Br)c2)no1 [Compound 103],100 to 500,–,–,–,–,–,–,–,–,–,–,–,–,–,–,–,–,–,–,–
"Ghrelin (GSSFLSPEHQRVQQRKESKKPPAKLQPR; Ghrelin-28; UniProt Q9UBU3 24-51, looked up)",–,no serious adverse events,only transient gastrointestinal symptoms,significant decrease,efficacy,significantly reduced,"3,300 MFI",significant reduction,significant reduction,significantly less,significantly decreased,decreased,significantly less,significantly reduced,improved,prevented neurocognitive decline to levels of sham,prevents,improves,decreases,prevents
